Reference: US20240166652A1, “MODULATORS OF THE INTEGRATED STRESS PATHWAY” (Calico Life Sciences LLC, priority 2017, published 2024)

System: ATF4 luciferase reporter in HEK293T cells
Experiment: ATF4-Luc assay (ATF4 luciferase reporter, tunicamycin-treated HEK293T cells)
Assay type: cell-based, human
Details: Homo sapiens, HEK-293T; HEK293T cells carrying the ATF4 luciferase reporter, 1 μg/mL tunicamycin, 7 hours

| Structure (SMILES) | EC50 |
| --- | --- |
| COCc1ccccc1OCC(=O)NC12CCC(NC(=O)COc3ccc(Cl)c(F)c3)(CC1)[C@@H](O)C2 [Compound 776, 2-(4-chloro-3-fluorophenoxy)-N-[(2S)-2-hydroxy-4-{2-[2-(methoxymethyl)phenoxy]acetamido}bicyclo[2.2.2]octan-1-yl]acetamide] | > 2000 nM |
| COCc1cccc(OCC(=O)NC23CCC(NC(=O)COc4ccc(Cl)c(F)c4)(CC2)[C@@H](O)C3)c1 [Compound 777, 2-(4-chloro-3-fluorophenoxy)-N-[(2S)-2-hydroxy-4-{2-[3-(methoxymethyl)phenoxy]acetamido}bicyclo[2.2.2]octan-1-yl]acetamide] | 10 to 50 nM |
| CCc1ccc(OCC(=O)NC23CCC(NC(=O)COc4ccc(F)c(F)c4)(CC2)[C@@H](O)C3)cc1 [Compound 778, 2-(3,4-difluorophenoxy)-N-{(2S)-4-[2-(4-ethylphenoxy)acetamido]-2-hydroxybicyclo[2.2.2]octan-1-yl}acetamide] | 10 to 50 nM |
| O=C(COc1ccc(Cl)c(F)c1)NC12CC(NC(=O)C(OCCO)c3ccc(F)cc3)(C1)C2 (stereo not drawn) [Compound 779, N-{3-[2-(4-chloro-3-fluorophenoxy)acetamido]bicyclo[1.1.1]pentan-1-yl}-2-(4-fluorophenyl)-2-(2-hydroxyethoxy)acetamide] | > 2000 nM |
| O=C(COc1ccc(OC(F)(F)F)cc1)NC12CCC(NC(=O)COc3ccc4c(c3)OC(F)(F)O4)(CC1)[C@@H](O)C2 [Compound 780, 2-[(2,2-difluoro-2H-1,3-benzodioxol-5-yl)oxy]-N-[(2S)-2-hydroxy-4-{2-[4-(trifluoromethoxy)phenoxy]acetamido}bicyclo[2.2.2]octan-1-yl]acetamide] | < 10 nM |
| O=C(COc1ccc(OC(F)(F)F)cc1)NC12CCC(NC(=O)COc3ccc(F)cc3)(CC1)[C@@H](O)C2 [Compound 781, 2-(4-fluorophenoxy)-N-[(2S)-2-hydroxy-4-{2-[4-(trifluoromethoxy)phenoxy]acetamido}bicyclo[2.2.2]octan-1-yl]acetamide] | < 10 nM |
| CCc1ccc(OCC(=O)NC23CCC(NC(=O)COc4ccc(Cl)c(F)c4)(CC2)[C@@H](O)C3)cc1 [Compound 782, 2-(4-chloro-3-fluorophenoxy)-N-{(2S)-4-[2-(4-ethylphenoxy)acetamido]-2-hydroxybicyclo[2.2.2]octan-1-yl}acetamide] | < 10 nM |
| O=C(COc1ccc(OC(F)(F)F)cc1)NC12CCC(NC(=O)COc3ccc(Cl)cc3)(CC1)[C@@H](O)C2 [Compound 783, 2-(4-chlorophenoxy)-N-[(2S)-2-hydroxy-4-{2-[4-(trifluoromethoxy)phenoxy]acetamido}bicyclo[2.2.2]octan-1-yl]acetamide] | < 10 nM |
| O=C(COc1ccc(OC(F)(F)F)cc1)NC12CCC(NC(=O)COc3ccc(F)c(F)c3)(CC1)[C@@H](O)C2 [Compound 784, 2-(3,4-difluorophenoxy)-N-[(2S)-2-hydroxy-4-{2-[4-(trifluoromethoxy)phenoxy]acetamido}bicyclo[2.2.2]octan-1-yl]acetamide] | < 10 nM |
| O=C(COc1ccc(OC(F)(F)F)cc1)NC12CCC(NC(=O)COc3ccc(OC(F)(F)F)cc3)(CC1)[C@@H](O)C2 [Compound 785, N,N′-[(2S)-2-hydroxybicyclo[2.2.2]octane-1,4-diyl]bis{2-[4-(trifluoromethoxy)phenoxy]acetamide}] | 50 to 250 nM |
| O=C(COc1ccc2c(c1)OC(F)(F)O2)NC12CCC(NC(=O)COc3ccc(OC(F)(F)F)cc3)(CC1)[C@@H](O)C2 [Compound 786, 2-[(2,2-difluoro-2H-1,3-benzodioxol-5-yl)oxy]-N-[(3S)-3-hydroxy-4-{2-[4-(trifluoromethoxy)phenoxy]acetamido}bicyclo[2.2.2]octan-1-yl]acetamide] | < 10 nM |
| Cc1ccc(OCC(=O)NC23CCC(NC(=O)COc4ccc(Cl)cc4)(CC2)[C@@H](O)C3)cc1 [Compound 787, 2-(4-chlorophenoxy)-N-{(2S)-2-hydroxy-4-[2-(4-methylphenoxy)acetamido]bicyclo[2.2.2]octan-1-yl}acetamide] | < 10 nM |
| Cc1ccc(OCC(=O)NC23CCC(NC(=O)COc4ccc(F)c(F)c4)(CC2)[C@@H](O)C3)cc1 [Compound 788, 2-(3,4-difluorophenoxy)-N-{(2S)-2-hydroxy-4-[2-(4-methylphenoxy)acetamido]bicyclo[2.2.2]octan-1-yl}acetamide] | < 10 nM |
| O=C(CO)Nc1cc(Cl)ccc1OCC(=O)NC12CC(NC(=O)COc3ccc(Cl)c(F)c3)(C1)C2 [Compound 789, 2-(4-chloro-3-fluorophenoxy)-N-(3-{2-[4-chloro-2-(2-hydroxyacetamido)phenoxy]acetamido}bicyclo[1.1.1]pentan-1-yl)acetamide] | 50 to 250 nM |
| O=C(COc1ccc(F)c(C(F)F)c1)NC12CCC(NC(=O)COc3ccc(Cl)c(F)c3)(CC1)[C@@H](O)C2 [Compound 790, 2-(4-chloro-3-fluorophenoxy)-N-[(2S)-4-{2-[3-(difluoromethyl)-4-fluorophenoxy]acetamido}-2-hydroxybicyclo[2.2.2]octan-1-yl]acetamide] | < 10 nM |
| O=C(CO)NC(COC(=O)NC12CC(NC(=O)COc3ccc(Cl)c(F)c3)(C1)C2)c1ccc(Cl)cc1 (stereo not drawn) [Compound 791, 2-(4-chlorophenyl)-2-(2-hydroxyacetamido)ethyl {3-[2-(4-chloro-3-fluorophenoxy)acetamido]bicyclo[1.1.1]pentan-1-yl}carbamate] | > 2000 nM |
| COc1cccc(OCC(=O)NC23CCC(NC(=O)COc4ccc(Cl)c(F)c4)(CC2)[C@@H](O)C3)n1 [Compound 792, 2-(4-chloro-3-fluorophenoxy)-N-[(2S)-2-hydroxy-4-{2-[(6-methoxypyridin-2-yl)oxy]acetamido}bicyclo[2.2.2]octan-1-yl]acetamide] | < 10 nM |
| COc1cc(Cl)ccc1OCC(=O)NC12CCC(NC(=O)COc3ccc(Cl)c(F)c3)(CC1)[C@@H](O)C2 [Compound 793, 2-(4-chloro-3-fluorophenoxy)-N-{(2S)-4-[2-(4-chloro-2-methoxyphenoxy)acetamido]-2-hydroxybicyclo[2.2.2]octan-1-yl}acetamide] | < 10 nM |
| COc1cc(OCC(=O)NC23CCC(NC(=O)COc4ccc(Cl)c(F)c4)(CC2)[C@@H](O)C3)ccc1F [Compound 794, 2-(4-chloro-3-fluorophenoxy)-N-{(2S)-4-[2-(4-fluoro-3-methoxyphenoxy)acetamido]-2-hydroxybicyclo[2.2.2]octan-1-yl}acetamide] | < 10 nM |
| O=C(COc1ccc(Cl)c(F)c1)NC12CCC(NC(=O)COc3ccc(F)c(OC(F)F)c3)(CC1)[C@@H](O)C2 [Compound 795, 2-(4-chloro-3-fluorophenoxy)-N-[(3S)-4-{2-[3-(difluoromethoxy)-4-fluorophenoxy]acetamido}-3-hydroxybicyclo[2.2.2]octan-1-yl]acetamide] | < 10 nM |
| O=C(COc1ccc(F)c(F)c1)NC12CCC(NC(=O)COc3ccc(F)c(OC(F)F)c3)(CC1)[C@@H](O)C2 [Compound 796, 2-[3-(difluoromethoxy)-4-fluorophenoxy]-N-{(2S)-4-[2-(3,4-difluorophenoxy)acetamido]-2-hydroxybicyclo[2.2.2]octan-1-yl}acetamid6] | 10 to 50 nM |
| O=C(COc1ccc(Cl)c(F)c1)NC12CC(NC(=O)COc3ccc(Cl)cc3NCCO)(C1)C2 [Compound 797, 2-(4-chloro-3-fluorophenoxy)-N-[3-(2-{4-chloro-2-[(2-hydroxyethyl)amino]phenoxy}acetamido)bicyclo[1.1.1]pentan-1-yl]acetamide] | 50 to 250 nM |
| O=C(COc1ccc2c(c1)OC(F)(F)O2)NC12CCC(NC(=O)COc3ccc(F)cc3)(CC1)[C@@H](O)C2 [Compound 798, 2-[(2,2-difluoro-2H-1,3-benzodioxol-5-yl)oxy]-N-{(3S)-4-[2-(4-fluorophenoxy)acetamido]-3-hydroxybicyclo[2.2.2]octan-1-yl}acetamide] | < 10 nM |
| O=C(COc1ccc2c(c1)OC(F)(F)O2)NC12CCC(NC(=O)COc3ccc(Cl)cc3)(CC1)[C@@H](O)C2 [Compound 799, 2-(4-chlorophenoxy)-N-[(2S)-4-{2-[(2,2-difluoro-2H-1,3-benzodioxol-5-yl)oxy]acetamido}-2-hydroxybicyclo[2.2.2]octan-1-yl]acetamide] | < 10 nM |
| COCC(=O)Nc1cc(Cl)ccc1OCC(=O)NC12CC(NC(=O)COc3ccc(Cl)c(F)c3)(C1)C2 [Compound 800, 2-(4-chloro-3-fluorophenoxy)-N-(3-{2-[4-chloro-2-(2-methoxyacetamido)phenoxy]acetamido}bicyclo[1.1.1]pentan-1-yl)acetamide] | 50 to 250 nM |
| O=C(COc1ccc(OC(F)F)c(F)c1)NC12CCC(NC(=O)COc3ccc(Cl)c(F)c3)(CC1)[C@@H](O)C2 [Compound 801, 2-(4-chloro-3-fluorophenoxy)-N-[(2S)-4-{2-[4-(difluoromethoxy)-3-fluorophenoxy]acetamido}-2-hydroxybicyclo[2.2.2]octan-1-yl]acetamide] | < 10 nM |
| O=C(COc1ccc(Cl)c(F)c1)NC12CCC(NC(=O)COc3ccc(OC(F)F)c(F)c3)(CC1)[C@@H](O)C2 [Compound 802, 2-(4-chloro-3-fluorophenoxy)-N-[(3S)-4-{2-[4-(difluoromethoxy)-3-fluorophenoxy]acetamido}-3-hydroxybicyclo[2.2.2]octan-1-yl]acetamide] | < 10 nM |
| O=C(COc1ccc(F)c(F)c1)NC12CCC(NC(=O)COc3ccc(OC(F)F)c(F)c3)(CC1)[C@@H](O)C2 [Compound 803, 2-[4-(difluoromethoxy)-3-fluorophenoxy]-N-{(2S)-4-[2-(3,4-difluorophenoxy)acetamido]-2-hydroxybicyclo[2.2.2]octan-1-yl}acetamide] | < 10 nM |
| O=C(COc1ccc2c(c1)OC(F)(F)O2)NC12CCC(NC(=O)COc3ccc(F)c(F)c3)(CC1)[C@@H](O)C2 [Compound 804, 2-[(2,2-difluoro-2H-1,3-benzodioxol-5-yl)oxy]-N-{(3S)-4-[2-(3,4-difluorophenoxy)acetamido]-3-hydroxybicyclo[2.2.2]octan-1-yl}acetamide] | < 10 nM |
| O=C(COc1ccc(Cl)c(F)c1)NC12CC(NC(=O)COc3ccccc3OCCO)(C1)C2 [Compound 805, 2-(4-chloro-3-fluorophenoxy)-N-(3-{2-[2-(2-hydroxyethoxy)phenoxy]acetamido}bicyclo[1.1.1]pentan-1-yl)acetamide] | 500 to 2000 nM |
